Publication PMC7747997 (Plant Communications, 2019)

Key:
Assay in all cases: X-ray crystal structure, […] Å
Assay type in all cases: binding
SrUGT76G1 [1] = target: T1, SrUGT76G1 (Stevia rebaudiana, UniProt Q6VAB4); conditions: donor site; crystals set up with UDP-xylose and Sb
T1 sequence (Q6VAB4 1-458): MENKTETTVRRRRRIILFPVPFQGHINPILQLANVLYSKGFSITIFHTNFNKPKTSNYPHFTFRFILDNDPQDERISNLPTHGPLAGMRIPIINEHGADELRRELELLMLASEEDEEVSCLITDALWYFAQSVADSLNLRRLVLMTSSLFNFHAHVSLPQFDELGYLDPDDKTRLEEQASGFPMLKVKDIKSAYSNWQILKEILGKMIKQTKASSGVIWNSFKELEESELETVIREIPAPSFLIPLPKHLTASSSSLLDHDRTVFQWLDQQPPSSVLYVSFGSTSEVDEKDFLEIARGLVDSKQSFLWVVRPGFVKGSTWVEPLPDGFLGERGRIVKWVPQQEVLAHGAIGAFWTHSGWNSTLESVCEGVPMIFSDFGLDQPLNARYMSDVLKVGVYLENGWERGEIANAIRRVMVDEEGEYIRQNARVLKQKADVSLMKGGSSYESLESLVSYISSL

SrUGT76G1 [2] = target: T1, SrUGT76G1; conditions: donor site; crystals set up with UDP-glucose
SrUGT76G1 [3] = target: T1, SrUGT76G1; conditions: complex with UDP (crystals set up with UDP-xylose); acceptor pocket

O=c1ccn([C@@H]2O[C@H](COP(=O)(O)OP(=O)(O)O[C@H]3OC[C@@H](O)[C@H](O)[C@H]3O)[C@@H](O)[C@H]2O)c(=O)[nH]1 [UDP-xylose]
X-ray crystal structure, 2.5 Å (SrUGT76G1 [1]): UDP-xylose (UDPX-SrUGT76G1)

O=c1ccn([C@@H]2O[C@H](COP(=O)(O)OP(=O)(O)O)[C@@H](O)[C@H]2O)c(=O)[nH]1 [UDP]
X-ray crystal structure, 2.6 Å (SrUGT76G1 [2]): we crystallized SrUGT76G1 complexed with UDP (UDP-SrUGT76G1)

C=C1C[C@@]23CC[C@H]4[C@@](C)(CCC[C@@]4(C)C(=O)O)[C@@H]2CC[C@]1(O[C@@H]1O[C@H](CO)[C@@H](O)[C@H](O)[C@H]1O)C3 [steviolmonoside]
X-ray crystal structure, 2.4 Å (SrUGT76G1 [3]): UDP and steviolmonoside (UDP-Sm-SrUGT76G1)
